What all share (assay): growth of human tumour cells (NCI), 48 h
The test system of test [1] is DU-145 prostate.
Test [2] has as its system HCT-15 colon.
Test [3] deals with MALME-3M melanoma.
Test [4] relates to MDA-N.
Test [5] relates to NCI-H23 lung.
Test [6] relates to NCI/ADR-RES ovarian.
Test [7] relates to SF-268 CNS.
The subject of test [8] is SW-620 colon.
Test [9] concerns UO-31 renal.
For test [10], the system named is A498 renal.

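Compound exposure: 48 hours, 5 concentrations, 96-well plates. GI50: concentration for 50% inhibition of growth. TGI: total growth inhibition.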

Regarding `O=C1CC[C@@]23CC(=O)O[C@@H]2CCCC3C1` (stereo not given in full), the TGI in test [1], in test [2], in test [3], in [4], in [5] and in test [6] was over 100 µM each time. Moreover, the TGI in test [7], in test [8] and in [9] was over 100 µM in each case.

Turning to `COc1ccc(C(=O)/C=C/SC(=NC#N)SC)cc1`, the TGI was determined as 60.7 µM in [10]; 53.5 µM in test [1]; 28.8 µM in test [2]; 50.3 µM in test [3]; 33.2 µM in test [5]; 42.3 µM in [6]. In addition, the TGI in test [7] was 70.3 µM; in test [8], 48.3 µM; in [9], 37.4 µM.

For `CC[C@H](NC(=O)OC(C)(C)C)C(=O)NCP(=O)(OCc1ccc([N+](=O)[O-])cc1)OCc1ccc([N+](=O)[O-])cc1`, the TGI in [1] was over 100 µM; in [2] it was over 100 µM; in test [3], over 100 µM; in test [4], 86.1 µM; in test [5], over 100 µM; in [6] it was over 100 µM. In addition, the values for the TGI in [7], in test [8] and in test [9] were over 100 µM, over 100 µM and 80.2 µM, respectively.

`CC(C)=C/C(CC(O)(C(F)(F)F)C(F)(F)F)=N\O`: the TGI in test [10], in test [1], in test [2], in [3], in test [5] and in [6] was over 100 µM each time. Moreover, the TGI in test [7], in [8] and in test [9] was over 100 µM in each case.

As to `O=C1c2cc3c(cc2-c2c1c1ccc(Cl)cc1c(=O)n2CCCn1ccnc1)OCO3`, the GI50 in test [10] is 0.025 µM; in test [1], under 0.01 µM; in test [2], 0.0431 µM; in [3], 0.0647 µM; in test [5], under 0.01 µM; in [6], under 0.01 µM. Besides, the GI50 in test [7], in test [8] and in test [9] was under 0.01 µM throughout. Also, the TGI in test [1] is 0.282 µM; in test [2], over 100 µM; in [3], over 100 µM; in test [5], 0.317 µM; in [6] it was 15.2 µM; in test [7], over 100 µM. Besides, the TGI in [8] and in test [9] was over 100 µM in each case.

Turning to `CCOC(=O)C(NC(=O)c1cccc(Cl)c1)(Nc1cccc(C)c1)C(F)(F)F` (stereo not given), the TGI in test [1] stood at 99.6 µM; in test [2] it was 31.2 µM; in test [3], 30.4 µM; in [4] it was 38.8 µM; in test [6] it was 38.8 µM; in test [7], 58.9 µM. The TGI in test [8] was determined as 37.2 µM; in test [9], 32.7 µM.

As for `CCCn1cc2c3c(cccc31)C1C=C(C)CN(C)C1C2` (stereo not given), the TGI in test [10] was 37.8 µM; in test [2] it was 49 µM; in test [3], 55.5 µM; in test [5] it was 61.8 µM; in test [6], 58.8 µM; in test [7], 47.2 µM. The TGI in test [8] was determined as 62.4 µM; in test [9] it was 38.8 µM.

In the case of `O=[N+]([O-])c1ccc(-c2csc(=[N+]3CCCCC3)s2)cc1`, the TGI in test [10] is 63.6 µM; in [2], over 100 µM; in test [3] it was 32.1 µM; in test [5], 22.8 µM; in test [7] it was over 100 µM; in [8] it was over 100 µM. Moreover, the TGI in test [9] is over 100 µM.

Turning to `CCN(CC)CCCCNc1c2ccc(Cl)cc2nc2ccc(OC)cc12`, the GI50 is 1.21 µM in test [10]; 0.34 µM in [1]; 0.289 µM in [2]; 1.54 µM in test [3]; 0.524 µM in test [5]; 0.645 µM in test [6]. Also, the GI50 in [7] is 0.797 µM; in test [8] it was 0.277 µM; in test [9], 0.759 µM. In addition, the TGI in test [10] was found to be 2.52 µM; in test [1], 1.62 µM; in test [2], 1.62 µM; in [3], 3.65 µM; in test [5] it was 2.38 µM; in test [6], 3.95 µM. In addition, the values for the TGI in test [7], in [8] and in test [9] were 3.33 µM, 2.12 µM and 3.31 µM, respectively.

`C=CN(C=C)C(=O)Cn1cc(-c2ccccc2)nn1`: the TGI in test [1], in test [2], in test [3], in test [5], in test [6] and in test [7] was over 100 µM throughout. This compound returned a TGI in test [8] of over 100 µM.

On to `O=c1c2ccc(Cl)cc2oc2c(CNc3ccc(S(=O)(=O)Nc4ncccn4)cc3)cccc12`, for which the TGI in [10], in test [2], in test [3], in test [4], in test [5] and in test [6] was over 100 µM each time. For the same compound, the TGI in [8] and in test [9] was over 100 µM in each case.

Take `CCOC(=O)/C=C/CCC(C)(C)COC(C)=O`: the TGI in test [1], in [2], in test [4], in test [5], in [6] and in [7] was over 10 µM throughout. Further, the TGI in test [8] and in test [9] was over 10 µM throughout.

Regarding `CC(C)(C)c1ccnc(N=C2N=C(Nc3cc(C(C)(C)C)ccn3)c3ccccc32)c1`, the TGI in test [10] is 53.4 µM; in [2] it was over 100 µM; in test [3], 63.7 µM; in test [5], 94.6 µM; in test [7], 37.9 µM; in [8], over 100 µM. This compound also returned a TGI in test [9] of 65.3 µM.

As for `CN(C)CCCNC(=O)N/N=C/c1ccccc1`, the TGI in test [10], in test [2], in test [3], in test [7], in test [8] and in test [9] was over 100 µM each time.

Turning to `Cc1nc2c(=O)n(-c3ccccc3)c(=O)n(-c3ccccc3)c2o1`, the TGI in test [10], in test [2], in [3], in test [4], in test [5] and in test [6] was over 100 µM in each case. In addition, the TGI in test [7], in [8] and in test [9] was over 100 µM each time.

`O=C(C(=C(I)I)c1ccccc1)c1ccccc1`: the TGI in test [10] was 28.6 µM; in test [2], over 100 µM; in test [3] it was 46.8 µM; in test [4] it was 62.1 µM; in test [5], 88.8 µM; in test [6], over 100 µM. Moreover, the figures for the TGI in [7], in [8] and in test [9] were over 100 µM, over 100 µM and 58.8 µM, respectively.

Turning to `Cc1cc(S(=O)(=O)N=C2Nc3cccc4cccc(c34)N2)c(S)cc1Cl`, the TGI in test [1], in [2], in [3], in [4], in test [6] and in [7] was over 100 µM in each case. The TGI in [8] and in test [9] was over 100 µM each time.

Regarding `NC(=O)C1CCN(Cc2c(Cl)c(Cl)c(CN3CCC(C(N)=O)CC3)c(Cl)c2Cl)CC1`, the TGI was 90.6 µM in test [10]; over 100 µM in test [1]; over 100 µM in test [2]; over 100 µM in test [3]; over 100 µM in test [5]; over 100 µM in test [6]. The TGI in test [7], in test [8] and in test [9] was over 100 µM in each case.

For the compound `COc1ccc(C2C=C(c3ccc(C)cc3)N(c3ccc(OC)cc3[N+](=O)[O-])C3C(=O)OC(=O)C23)c(OC)c1` (stereo not given), the TGI in [10] is over 100 µM; in [2] it was over 100 µM; in test [3], 38.5 µM; in [5], over 100 µM; in test [7], over 100 µM; in [8] it was 80.9 µM.

In the case of `CN(C)CCNCCCNc1c2ccccc2nc2cccc([N+](=O)[O-])c12`, the TGI in [10] was 0.0588 µM; in test [1], 0.0525 µM; in test [2], 0.569 µM; in [3] it was 0.104 µM; in test [5], under 0.0186 µM; in [7], 0.105 µM. For the same compound, the TGI in test [8] came to 1.34 µM; in test [9], 0.26 µM.

Turning to `C/C(=C\CSCC(N)C(=O)O)CC/C=C(\C)CNc1ccccc1` (stereo not given), the TGI in test [1], in [2], in test [3], in test [5], in test [6] and in [7] was over 100 µM in each case. The TGI in test [8] and in test [9] was over 100 µM each time.

Consider `COc1cc2c(c(OC)c1)[C@H](C)N(Cc1ccccc1)C(C)C2` (stereo not given in full), for which the TGI in test [10], in test [1], in test [2], in test [3], in [5] and in test [7] was over 100 µM in each case. For the same compound, the TGI in test [8] and in [9] was over 100 µM each time.

These data come from PubChem BioAssay (NCI).
